Assays:
human MLKL (full length) = human MLKL (full length) (Homo sapiens (Human), UniProt Q8NB16); assay: KINOMEscan binding assay, human MLKL (full length); settings: KINOMEscan, Table 21; read-out: Human MLKL (full-length) (KD)
Protocol: Binding affinity of the test compounds for human MLKL (full length), mouse MLKL (full length), human RIPK1 and human RIPK3 was determined using the KINOMEscan™ technology developed by DiscoverX (USA; http://www.discoverx.com). The assay was conducted according to manufacturer instructions.
Kinase assays. For most assays, kinase-tagged T7 phage strains were grown in parallel in 24-well blocks in an E. coli host derived from the BL21 strain. E. coli were grown to log-phase and infected with T7 phage from a frozen stock (multiplicity of infection=0.4) and incubated with shaking at 32° C. until lysis (90-150 minutes). The lysates were centrifuged (6,000×g) and filtered (0.2 μm) to remove cell debris. The remaining kinases were produced in HEK-293 cells and subsequently tagged with DNA for qPCR detection. […] The liganded beads were blocked with excess biotin and washed with blocking buffer (SeaBlock (Pierce), 1% BSA, 0.05% Tween 20, 1 mM DTT) to remove unbound ligand and to reduce non-specific phage binding. […] All reactions were performed in polypropylene 384-well plates in a final volume of 20 μL. […] The kinase concentration in the eluates was measured by qPCR.
An 11-point 3-fold serial dilution of each test compound was prepared in 100% DMSO at 100× final test concentration and subsequently diluted to 1× in the assay (final DMSO concentration=1%). Most Kos were determined using a compound top concentration=30,000 nM.
KD for each test compound was calculated with a standard dose-response curve using the Hill equation (equation (1)): […]
The Hill Slope was set to −1.
Curves were fitted using a non-linear least square fit with the Levenberg-Marquardt algorithm.

human RIPK3 = human RIPK3 (Homo sapiens (Human), UniProt Q9Y572); assay: KINOMEscan binding assay, human RIPK3; settings: Table 21
How it was run: (§1)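 Competition binding format with qPCR detection. Kinases, either phage-fused from E. coli lysates or HEK-293-derived with a DNA tag, bound ligand-coated beads in the presence of compound (11 points, 3-fold steps, 1% DMSO, top usually 30,000 nM). Kd from nonlinear Hill fitting with slope −1.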

human RIPK1 = human RIPK1 (Homo sapiens (Human), UniProt Q13546); assay: KINOMEscan binding assay, human RIPK1; settings: Table 21
How it was run: as §1

human RIPK1, sequence (Q13546 whole entry): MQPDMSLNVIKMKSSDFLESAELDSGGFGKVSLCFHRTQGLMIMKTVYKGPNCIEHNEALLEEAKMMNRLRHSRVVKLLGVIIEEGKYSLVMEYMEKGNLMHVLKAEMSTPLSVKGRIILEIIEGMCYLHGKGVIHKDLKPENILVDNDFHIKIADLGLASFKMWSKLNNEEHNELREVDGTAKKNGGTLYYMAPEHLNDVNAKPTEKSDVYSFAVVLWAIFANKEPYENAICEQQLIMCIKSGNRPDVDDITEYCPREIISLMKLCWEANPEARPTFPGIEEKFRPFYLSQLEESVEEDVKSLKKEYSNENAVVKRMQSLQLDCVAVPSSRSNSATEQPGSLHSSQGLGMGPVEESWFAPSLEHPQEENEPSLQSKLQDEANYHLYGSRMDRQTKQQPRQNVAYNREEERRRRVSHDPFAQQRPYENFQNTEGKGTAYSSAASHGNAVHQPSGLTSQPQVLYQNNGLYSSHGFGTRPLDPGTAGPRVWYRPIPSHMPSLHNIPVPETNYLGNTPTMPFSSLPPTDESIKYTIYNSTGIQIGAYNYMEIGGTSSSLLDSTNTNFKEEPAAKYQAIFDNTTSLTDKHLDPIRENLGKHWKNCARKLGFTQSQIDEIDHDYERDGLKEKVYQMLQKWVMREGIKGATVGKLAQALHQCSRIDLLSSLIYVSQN
human MLKL (full length), sequence (Q8NB16 whole entry): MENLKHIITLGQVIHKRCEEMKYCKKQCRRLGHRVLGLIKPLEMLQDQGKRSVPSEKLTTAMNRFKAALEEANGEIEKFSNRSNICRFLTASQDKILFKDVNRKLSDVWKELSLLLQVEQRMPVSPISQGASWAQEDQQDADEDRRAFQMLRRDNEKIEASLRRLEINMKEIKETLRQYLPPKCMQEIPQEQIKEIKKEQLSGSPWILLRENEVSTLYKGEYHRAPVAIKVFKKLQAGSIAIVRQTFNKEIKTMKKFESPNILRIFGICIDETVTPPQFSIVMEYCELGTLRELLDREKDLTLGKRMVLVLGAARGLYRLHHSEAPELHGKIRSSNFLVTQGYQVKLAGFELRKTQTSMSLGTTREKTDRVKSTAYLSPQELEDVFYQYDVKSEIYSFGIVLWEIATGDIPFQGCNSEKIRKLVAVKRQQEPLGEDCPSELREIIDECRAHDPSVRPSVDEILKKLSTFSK
human RIPK3, sequence (Q9Y572 whole entry, the tested form may be a part): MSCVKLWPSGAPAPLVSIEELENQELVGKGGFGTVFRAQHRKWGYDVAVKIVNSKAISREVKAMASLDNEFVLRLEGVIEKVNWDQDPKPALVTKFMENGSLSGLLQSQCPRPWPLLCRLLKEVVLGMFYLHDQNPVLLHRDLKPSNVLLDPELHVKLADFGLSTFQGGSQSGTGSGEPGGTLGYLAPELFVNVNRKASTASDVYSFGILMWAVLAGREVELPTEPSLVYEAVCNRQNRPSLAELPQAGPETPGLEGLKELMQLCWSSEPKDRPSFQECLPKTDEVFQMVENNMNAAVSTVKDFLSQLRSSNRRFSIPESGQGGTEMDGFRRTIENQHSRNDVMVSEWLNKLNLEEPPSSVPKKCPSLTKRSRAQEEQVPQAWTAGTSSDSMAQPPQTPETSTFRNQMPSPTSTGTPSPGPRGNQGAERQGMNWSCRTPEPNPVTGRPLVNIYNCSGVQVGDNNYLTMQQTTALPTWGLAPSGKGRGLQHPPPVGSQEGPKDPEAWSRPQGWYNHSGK

| Compound | Kd (human MLKL (full length)) | Kd (human RIPK3) | Kd (human RIPK1) |
| --- | --- | --- | --- |
| CC(C)n1nc(-c2ccc(NS(=O)(=O)C(F)F)c(O[C@@H](C)c3ccc(F)cc3)c2)c2c(N)ncc(-c3ccncc3)c21 [Compound 50, (S)-N-(4-(4-amino-1-isopropyl-7-(pyridin-4-yl)-1H-pyrazolo[4,3-c]pyridin-3-yl)-2-(1-(4-fluorophenyl)ethoxy)phenyl)-1,1-difluoromethane-sulfonamide] | < 0.001 µM | > 10 µM | > 10 µM |
| C[C@H](Oc1cc(-c2nn(C)c3c(-c4cnn(C5CCOCC5)c4)cnc(N)c23)ccc1NS(=O)(=O)C(F)F)c1cccc(Cl)c1 [Compound 122] | < 0.001 µM | > 10 µM | > 10 µM |
| C[C@H](Oc1cc(-c2nn(C)c3c(-c4cnn(C5(C#N)CC5)c4)cnc(N)c23)ccc1NS(=O)(=O)C(F)F)c1ccc(F)cc1 [Compound 96, N-(4-{4-amino-7-[1-(1-cyanocyclopropyl)-1H-pyrazol-4-yl]-1-methyl-1H-pyrazolo[4,3-c]pyridin-3-yl}-2-[(1S)-1-(4-fluorophenyl)ethoxy]phenyl)-1,1-difluoromethanesulfonamide] | < 0.001 µM | > 10 µM | > 10 µM |
| C[C@H](Oc1cc(-c2nn(C)c3c(-c4cnn(C5CC6CCC(C5)N6C)c4)cnc(N)c23)ccc1NS(=O)(=O)C(F)F)c1ccc(F)cc1 (stereo partly drawn) [Compound 73, N-(4-(4-amino-1-methyl-7-(1-(8-methyl-8-azabicyclo[3.2.1]octan-3-yl)-1H-pyrazol-4-yl)-1H-pyrazolo[4,3-c]pyridin-3-yl)-2-((S)-1-(4-fluorophenyl)ethoxy)phenyl)-1,1-difluoromethanesulfonamide] | < 0.001 µM | > 10 µM | > 10 µM |
| COc1ccc(-c2cnc(N)c3c(-c4ccc(NS(=O)(=O)C(F)F)c(O[C@@H](C)c5ccc(F)cc5)c4)nn(C)c23)cn1 [Compound 28, (S)-N-(4-(4-amino-7-(6-methoxypyridin-3-yl)-1-methyl-1H-pyrazolo[4,3-c]pyridin-3-yl)-2-(1-(4-fluorophenyl)ethoxy)phenyl)-1,1-difluoromethanesulfonamide] | < 0.001 µM | > 10 µM | > 10 µM |
| CCS(=O)(=O)Nc1ccc(-c2coc3c(-c4cnn(C5CCOCC5)c4)cnc(N)c23)cc1OCc1ccc(F)cc1 [Compound 3, N-(4-(4-amino-7-(1-(tetrahydro-2H-pyran-4-yl)-1H-pyrazol-4-yl)furo[3,2-c]pyridin-3-yl)-2-((4-fluorobenzyl)oxy)phenyl)ethanesulfonamide] | < 0.001 µM | > 10 µM | > 10 µM |
| Nc1n[nH]c2nccc(-c3ccc(NS(=O)(=O)CC(F)(F)F)c(OCc4ccc(F)cc4)c3)c12 [Compound 67, N-(4-(3-Amino-1H-pyrazolo[3,4-b]pyridin-4-yl)-2-((4-fluorophenyl)methoxy)phenyl)-2,2,2-trifluoroethane-1-sulfonamide] | < 0.001 µM | > 10 µM | > 10 µM |
| CNCCn1cc(-c2cnc(N)c3c(-c4ccc(NS(=O)(=O)C(F)F)c(O[C@@H](C)c5ccc(F)cc5)c4)nn(C)c23)cn1 [Compound 82, (S)-N-(4-(4-amino-1-methyl-7-(1-(2-(methylamino)ethyl)-1H-pyrazol-4-yl)-1H-pyrazolo[4,3-c]pyridin-3-yl)-2-(1-(4-fluorophenyl)ethoxy)phenyl)-1,1-difluoromethanesulfonamide] | < 0.001 µM | > 10 µM | > 10 µM |
| C[C@@H](Oc1cc(-c2nn(C)c3c(-c4cnn(C5CCOCC5)c4)cnc(N)c23)ccc1NS(=O)(=O)C(F)F)c1ccc(F)cc1 [Compound 121, (R)-N-(4-(4-amino-1-methyl-7-(1-(tetrahydro-2H-pyran-4-yl)-1H-pyrazol-4-yl)-1H-pyrazolo[4,3-c]pyridin-3-yl)-2-(1-(4-fluorophenyl)ethoxy)phenyl)-1,1-difluoromethane-sulfonamide] | < 0.001 µM | > 10 µM | > 10 µM |
| C[C@H](Oc1cc(-c2nn(C)c3c(-c4cnn(C5(CN)CC5)c4)cnc(N)c23)ccc1NS(=O)(=O)C(F)F)c1ccc(F)cc1 [Compound 89, (S)—N-(4-(4-amino-7-(1-(1-(aminomethyl)cyclopropyl)-1H-pyrazol-4-yl)-1-methyl-1H-pyrazolo[4,3-c]pyridin-3-yl)-2-(1-(4-fluorophenyl)ethoxy)phenyl)-1,1-difluoromethanesulfonamide] | < 0.001 µM | > 10 µM | > 10 µM |
| C[C@H](Oc1cc(-c2nn(C)c3c(C#CC4CCOCC4)cnc(N)c23)ccc1NS(=O)(=O)C(F)F)c1ccc(F)cc1 [Compound 58, (S)-N-(4-(4-amino-1-methyl-7-((tetrahydro-2H-pyran-4-yl)ethynyl)-1H-pyrazolo[4,3-c]pyridin-3-yl)-2-(1-(4-fluorophenyl)ethoxy)phenyl)-1,1-difluoromethane-sulfonamide] | < 0.001 µM | > 10 µM | > 10 µM |
| C[C@H](Oc1cc(-c2cnn3c(-c4cnn(C5CCOCC5)c4)cnc(N)c23)ccc1NS(=O)(=O)C(F)F)c1ccc(F)cc1 [Compound 36, (S)-N-(4-(4-amino-7-(1-(tetrahydro-2H-pyran-4-yl)-1H-pyrazol-4-yl)pyrazolo[1,5-a]pyrazin-3-yl)-2-(1-(4-fluorophenyl)ethoxy)phenyl)-1,1-difluoromethane-sulfonamide] | < 0.001 µM | > 10 µM | > 10 µM |
| Cn1nc(-c2ccc(NS(=O)(=O)C(F)F)c(OCc3ncco3)c2)c2c(N)ncc(-c3cnn(C4CCOCC4)c3)c21 [Compound 151, N-(4-(4-amino-1-methyl-7-(1-(tetrahydro-2H-pyran-4-yl)-1H-pyrazol-4-yl)-1H-pyrazolo[4,3-c]pyridin-3-yl)-2-(oxazol-2-yl-methoxy)phenyl)-1,1-difluoromethane-sulfonamide] | < 0.001 µM | > 10 µM | > 10 µM |
| CC(n1cc(-c2cnc(N)c3c(-c4ccc(NS(=O)(=O)C(F)F)c(O[C@@H](C)c5ccc(F)cc5)c4)nn(C)c23)cn1)C(F)(F)F (stereo partly drawn) [Compound 142, N-(4-(4-amino-1-methyl-7-(1-(1,1,1-trifluoropropan-2-yl)-1H-pyrazol-4-yl)-1H-pyrazolo[4,3-c]pyridin-3-yl)-2-((S)-1-(4-fluorophenyl)ethoxy)phenyl)-1,1-difluoromethanesulfonamide] | < 0.001 µM | > 10 µM | > 10 µM |
| C[C@H](Oc1cc(-c2nn(C)c3c(-c4cnn(C5(CC#N)COC5)c4)cnc(N)c23)ccc1NS(=O)(=O)C(F)F)c1ccc(F)cc1 [Compound 98, (S)-N-(4-(4-amino-7-(1-(3-(cyanomethyl)oxetan-3-yl)-1H-pyrazol-4-yl)-1-methyl-1H-pyrazolo[4,3-c]pyridin-3-yl)-2-(1-(4-fluorophenyl)ethoxy)phenyl)-1,1-difluoromethanesulfonamide] | < 0.001 µM | > 10 µM | > 10 µM |
| C[C@H](Oc1cc(-c2nn(C)c3c(C4=CCN(C)CC4)cnc(N)c23)ccc1NS(=O)(=O)C(F)F)c1ccc(F)cc1 [Compound 21, (S)-N-(4-(4-amino-1-methyl-7-(1-methyl-1,2,3,6-tetrahydropyridin-4-yl)-1H-pyrazolo[4,3-c]pyridin-3-yl)-2-(1-(4-fluorophenyl)ethoxy)phenyl)-1,1-difluoromethanesulfonamide] | < 0.001 µM | > 10 µM | > 10 µM |

Source: US20250115598A1 (Anaxis Pharma Pty Ltd, priority 2021, published 2025)
